Values joined by “and” are separate entries in the source; they are usually repeats but may differ in a detail not shown here. Equal values may be shown once.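 Protocol summary: plate cells (96-well), add compound at 5 concentrations, incubate 48 h, interpolate endpoints linearly. The concentration for 50% growth inhibition is given as GI50. The concentration for full growth arrest is given as TGI.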
Columns and labels:
Experiment in all cases: inhibition of tumour cell growth, NCI panel, 48 h
[1] = system: HOP-62 NSCLC
[2] = system: KM12 colon
[3] = system: MALME-3M melanoma
[4] = system: NCI-H460 lung
[5] = system: OVCAR-8 ovarian
[6] = system: RXF 393 renal
[7] = system: SN12C renal
[8] = system: SR leukemia

SMILES | GI50 [1] | TGI [1] [µM] | GI50 [2] | TGI [2] [µM] | GI50 [3] | TGI [3] [µM] | GI50 [4] | TGI [4] [µM] | GI50 [5] [µM] | TGI [5] [µM] | GI50 [6] | TGI [6] | GI50 [7] | TGI [7] [µM] | GI50 [8] | TGI [8] [µM]
CNC(=O)n1ccc2cc(Oc3ccnc(NC(=O)c4ccc(C5CCN(CCO)CC5)cc4)c3)c(OCCOC)cc21 | 4.56 µM | 18.6 | 10.4 µM | 24.5 | 1.62 µM | 3.15 | 3.22 µM | 10.2 | 4.51 | 19.5 | 1.34 µM | 3.09 µM | 13.5 µM | 27.9 | 2.27 µM | 25
Cc1ccc(/C=C2\CN(C(=O)OC(C)(C)C)C/C(=C\c3ccc(C)cc3)C2=O)cc1 |  | > 100 | 0.149 µM | > 100 |  | > 100 | 0.124 µM | 10.7 | 0.918 | > 100 | 0.0625 µM | 4.36 µM | 0.393 µM | > 100 | 0.0346 µM | > 100
Nc1c(C(=O)Nc2cccc([N+](=O)[O-])c2)sc2nc3c(cc12)C(O)CCC3 (centres undefined) | 6.66 µM | > 100 | 3.5 µM | > 100 | 26.9 µM | > 100 | 4.93 µM | > 100 | 10.8 | > 100 | 6.76 µM | > 65.8 µM | 7.39 µM | > 100 | 1.96 µM | > 100
CN(C)S(=O)(=O)c1ccc(NC(=O)COC(=O)c2ccc(S(=O)(=O)N3CCCCC3)cc2)cc1 | > 100 µM | > 100 | > 100 µM | > 100 | > 100 µM | > 100 | > 100 µM | > 100 |  |  | > 100 µM | > 100 µM | > 100 µM | > 100 | > 100 µM | > 100
C[C@@H](C(=O)Nc1ccc(Cl)cc1)C1CCC(c2ccnc3ccc(F)cc23)CC1 (some centres undefined) | 19.4 µM | > 100 | 6.01 µM | 34.9 | 9.83 µM | 60 | 4.3 µM | 45.5 | 21 | > 100 | 3.6 µM | 26.7 µM | 8.23 µM | 44.4 | 2.23 µM | 12.1
N#Cc1cnc2cc(OC[C@H](O)CO)c(NC(=O)CC3CSSC3)cc2c1Nc1ccc(OCc2cccc(F)c2)c(Cl)c1 | 0.895 µM | 1.81 | 0.155 µM | 0.45 | 0.97 µM | 2.06 | 0.126 µM | 0.298 | 1.02 | 2.28 | 0.987 µM | 1.85 µM | 0.35 µM | 1.1 |  | 
COc1c2c(c3c(c1CCC(=O)O)OC(C)(C)C=C3)OC(C)(C)C=C2 |  | > 100 |  | > 100 |  | > 100 |  |  |  | > 100 |  | > 100 µM |  | > 100 |  | > 100
CC(C)NC[C@@H](C(=O)N1CCN(c2ncnc3c2[C@H](C)C[C@H]3O)CC1)c1ccc(Cl)cc1 | > 10 µM and 11.9 µM | > 100 | 0.891 µM and 1.43 µM | > 91.9 | > 10 µM and 4.54 µM | > 76.7 | 1.47 µM and 2.33 µM | > 100 | > 100 | > 100 | 0.293 µM and 0.341 µM | 4.85 µM and 5.55 µM | > 10 µM and 44.7 µM | > 100 | > 10 µM and 13 µM | > 71.5
CC(C)(C)C[C@H]1NC(C(=O)NCC[C@H](O)CO)[C@H](c2cccc(Cl)c2)[C@@]12C(=O)Nc1cc(Cl)c(F)cc12 (some centres undefined) | 15.5 µM | 29.7 | 14.7 µM | 28.8 | 0.866 µM | 11.8 | 2.45 µM | 14.6 | 18.6 | 39.1 | 13.7 µM | 27.1 µM | 19.8 µM | 46.8 | 1.83 µM | 10.1
CN(C)/C=C/c1nnc([N+](=O)[O-])s1 |  | 51.5 |  | 29.6 |  | 14.6 |  | 33.1 |  | 53.3 |  | 31.4 µM |  | 47.7 |  | 
CCN1C(=O)N(CC)C2C1NN=c1s/c(=C\c3cccnc3)c(=O)n12 (centres undefined) | 0.628 µM | > 100 | 0.464 µM | > 100 | 0.599 µM | > 100 | 0.4 µM | > 100 | 0.823 | > 100 | 0.271 µM | 3.35 µM | 0.616 µM | > 100 | 0.132 µM | > 100
COc1ccc(-c2ccc(/C=N/n3c(COc4ccc(Cl)cc4Cl)n[nH]c3=S)o2)c([N+](=O)[O-])c1 | 19.8 µM | 35.7 | 15.9 µM | 33 | 19.9 µM | 45.1 | 18 µM | 46.3 | 29.7 | > 100 | 16.6 µM | 40.2 µM | 24.2 µM | 58.4 |  | 
O=C(c1ccccc1)C1N=NCC1c1ccc([N+](=O)[O-])cc1 (centres undefined) |  | > 100 |  | > 100 |  | > 100 |  | > 100 |  | > 100 |  |  |  | > 100 |  | 84.7
COc1cc(Cl)cc(-c2nn(C(=O)NCCN3CCOCC3)cc2-c2ccncc2)c1 | 6.03 µM | 63.6 | 3.79 µM | > 100 | 9.77 µM | > 100 | 3.81 µM | > 100 | 7.61 | > 100 | 2.67 µM | 19.9 µM | 10 µM | > 100 | 5.92 µM | > 100
Nc1ccn(Cc2ccc(C34CC5CC(CC(C5)C3)C4)c(O)c2)c(=O)n1 | 22.5 µM | 76.4 | > 100 µM | > 100 | > 100 µM | > 100 | > 100 µM | > 100 |  |  |  |  | > 100 µM | > 100 | > 100 µM | > 100
COC1(C(=O)N[C@@H](C)c2ccc(-n3cc(F)cn3)nc2)CCC(c2nc(C)cc(Nc3cc(C)[nH]n3)n2)CC1 (some centres undefined) | 1.34 µM | 14.6 | 0.0676 µM | 18.2 | 5.87 µM | 21.7 | 5.2 µM | 18.5 | 3.74 | 25.5 | 0.177 µM | 0.665 µM | 0.581 µM | 12.4 | 6.14 µM | > 100
CC1SC(c2c(Cl)cccc2Cl)N(NC(=O)c2[nH]c3ccc(F)cc3c2-c2ccccc2)C1=O (centres undefined) | 1.79 µM | 3.33 | 3.53 µM | 20.9 | 1.43 µM | 4.35 | 2.03 µM | 3.9 | 1.7 | 3.39 | 1.73 µM | 4.12 µM | 2.26 µM | 5.86 |  | 

SMILES | GI50 [1] | TGI [1] [µM] | GI50 [2] | TGI [2] [µM] | GI50 [3] | TGI [3] [µM] | GI50 [4] | TGI [4] [µM] | GI50 [5] [µM] | TGI [5] [µM] | GI50 [6] | TGI [6] | GI50 [7] | TGI [7] [µM] | GI50 [8] | TGI [8] [µM]
O=C1OC(=O)C(c2c[nH]c3ccccc23)=C1c1c[nH]c2ccccc12 | > 25 µM | > 25 | > 25 µM | > 25 | > 25 µM | > 25 | > 25 µM | > 25 | > 25 | > 25 | > 25 µM | > 25 µM | > 25 µM | > 25 | > 25 µM | > 25
COc1ccc2nc3cc([N+](=O)[O-])ccc3c(NCCCCCN(C)C)c2c1 | 0.0536 µM | 0.301 | 0.207 µM | 0.618 | 0.233 µM | 1.03 | 0.0815 µM | 1.03 | 0.214 | 1.32 |  |  | 0.179 µM | 0.631 | 0.159 µM | 14.1
COc1cccc(/C=C/C(=O)c2cccc(Nc3nc(Nc4ccccc4)nc(Nc4ccccc4)n3)c2)c1 | > 46.9 µM | > 78.1 | 3.88 µM | 18.3 | > 48.7 µM | > 100 | 9.01 µM | > 61.8 | 9.91 | > 100 | 10.7 µM | 35.6 µM | 48.5 µM | > 100 | 1.89 µM | 9.13
Nc1cc2cccc[n+]2c2cc(Cl)ccc12 |  |  | 7.89 µM | 53.2 | 2.38 µM | 11.7 | 18 µM | 49.6 | 16.8 | 57.9 | 87.9 µM |  | 5.56 µM | 35.4 | 2.33 µM | 16.2
C[C@H](Nc1ncnc2nc[nH]c12)c1cc2cccc(Cl)c2c(=O)n1-c1ccccc1 | 30.3 µM | > 100 | 27.1 µM | > 100 | 3.51 µM | > 79.5 | 12.6 µM | > 100 | 27 | > 100 | 0.273 µM | 9.41 µM | 3.11 µM | > 100 | 24.3 µM | > 100
Cc1occc1C(=S)Nc1ccc(Cl)c(COC(C)(C)C)c1 |  | 44.9 |  | 31.7 |  | 31.1 |  | 31 |  | 31.5 |  | 32.3 µM |  | 29.2 |  | 41.8
COC(=O)[C@]12CC[C@@H](C)[C@H](C)[C@@H]1C1=CC[C@@H]3[C@@]4(C)C[C@@H](OC(C)=O)[C@H](O)[C@@](C)(COC(C)=O)[C@@H]4[C@H](O)C[C@@]3(C)[C@]1(C)CC2 | 1.89 µM | 4.1 | 2.65 µM | 7.9 | 2.36 µM | 6.25 | 2.05 µM | 4.02 | 2.36 | 5.91 | 2.13 µM | 5.05 µM |  |  | 1.72 µM | 4.31
CC1(C)SC2C(NC(=O)C(N)c3ccccc3)C(=O)N2C1C(=O)O (centres undefined) |  | > 100 |  | > 100 |  |  |  | > 100 |  | > 100 |  |  |  | > 100 |  | > 100
Cc1sc(C(=O)Nc2cc(C(=O)NCCCN(C)C)n(C)c2)cc1NC(=O)CCCN1C(=O)c2cccc3cccc(c23)C1=O | > 100 µM | > 100 | > 100 µM | > 100 | 26 µM | > 100 | > 100 µM | > 100 |  |  |  |  | > 100 µM | > 100 | > 100 µM | > 100
O=C1c2ccccc2-c2c1c1ccccc1c(=O)n2CCCNCCCNCCCn1c2c(c3ccccc3c1=O)C(=O)c1ccccc1-2 | < 0.01 µM |  | 0.028 µM | 0.219 |  |  | < 0.0169 µM | 0.266 | < 0.01 | 0.201 | 0.0569 µM | 1.11 µM | < 0.01 µM | < 0.0303 |  | 
CCCCCn1c(=N)n(CC(O)COc2cccc(C)c2)c2ccccc21 (centres undefined) | 12 µM | 25.6 | 4.02 µM | 15.1 | 2.39 µM | 6.1 | 4.62 µM | 17.3 | 2.11 | 5.04 |  |  | 5.41 µM | 19 | 2.02 µM | 5.57
C1CCSCCCCSCCCCSCCCCSC1 |  | > 100 |  | > 100 |  |  |  | > 100 |  | > 100 |  | > 100 µM |  | > 100 |  | 
COC(=O)[C@@H](C)C[C@H](Cc1ccccc1)NC(=O)c1nc([C@@H](C[C@H](C(C)C)N(C)C(=O)[C@@H](NC(=O)[C@H]2CCCCN2C)C(C)C)OC(C)=O)sc1C | 0.00186 µM | > 16.7 | < 0.00167 µM | > 16.7 |  |  | < 0.00167 µM | > 16.7 | < 0.00167 | > 16.7 | < 0.00167 µM | > 16.7 µM | < 0.00167 µM | > 16.7 | < 0.00167 µM | > 16.7
CCCN=Cc1cc(Cc2ccc(O)c(C=NCCC)c2)ccc1O |  | > 100 |  | 22 |  | 50.5 |  | 51.9 |  | 20.4 |  | 37.7 µM |  | 15.3 |  | 
O=C(CC(=O)CC(O)(C(F)(F)F)C(F)(F)F)CC(O)(C(F)(F)F)C(F)(F)F |  | > 10 |  | > 10 |  | > 10 |  | > 10 |  | > 10 |  | > 10 µM |  | > 10 |  | 
C=C1C(=O)O[C@H]2[C@H]1CC/C(COC(=O)NCc1ccccc1OC)=C\CC[C@@]1(C)O[C@@H]21 | 3.69 µM | 14.4 | 3.53 µM | 13.6 | 1.89 µM | 3.98 | 3.73 µM | 14.6 | 2.45 | 8.38 | 1.04 µM | 2.57 µM |  |  | 0.679 µM | 5.19
